Experimental data reported in US11717528B2, “Methods and compositions relating to the treatment of fibrosis” (BROWN UNIVERSITY, priority 2017, dated 2023).
Entries after “also recorded” stand apart in the source; their conditions may differ.

What was measured:
[1] = test system: bleomycin-induced pulmonary fibrosis; experiment: bleomycin I.T. model of pulmonary fibrosis; format: in vivo, mice; details: bleomycin I.T. model (FIG. 9)
Description: FIG. 5 depicts schematic diagrams of in vivo validation of antifibrotic effect of Chit1 inhibitors using bleomycin models of pulmonary fibrosis
FIG. 9 depicts BAL cell recovery and total lung coallagen with and without Kasugamycin treatment (I.T. Model)
(§1) The results were validated by measuring dose-response (FIG. 4). Assay conditions were 0.33 nM of recombinant Chit1, 1 μM of test compound, 4 μM of substrate, 30 min incubation at room temperature.

[2] = test system: fibrosis (collagen accumulation); experiment: bleomycin-treated Hermansky-Pudlak syndrome mice; format: in vivo, HPS-1 null mice (pale ear mice); details: bleomycin IP 5 consecutive days, kasugamycin 50 mg/kg qod from day 12
Description: FIG. 12A depicts a schematic illustration of the experiemental procedure. Bleomycin was given IP for 5 consecutive days followed by kasugamycin at 50 mg/kg qod for 7 days starting on day 12. FIG. 12B depicts a graph of the effects on fibrosis (collagen accumulation).

[3] = test system: bleomycin-induced pulmonary fibrosis; experiment: kasugamycin by gavage in the bleomycin IP model; format: in vivo, WT C57BL/6 mice; details: kasugamycin 50, 100 or 500 mg/kg by gavage everyday
Description: FIGS. 13A-13B depict the effect of kasugamycin when given by gavage in the bleomycin IP model. FIG. 13A depicts a schematic illustration of the experimental procedure. Pulmonary fibrosis was induced in WT C57BL/6 mice by injecting bleomycin 6 times intra-peritoneal (IP) injection (25 unit/kg) daily (day 1-6). Units/injection—100 uL of 6 U/mL bleomycin solution (0.6 unit/injection). Kasugamycin was then administered at 50 mg/kg, 100 mg/kg, or 500 mg/kg, gavage everyday. FIG. 13B depicts a graph of the effects on collagen count. The x-axis specifies the dose of kasugamcyin used.

[4] = test system: TGFβ1-stimulated inflammation and fibrosis; experiment: transgenic TGFβ1-stimulated inflammation and fibrosis; format: in vivo, TGFβ1 transgenic mice; details: for fibrosis: transgenic TGFβ1 stimulation (FIG. 10, 11)
Description: FIG. 10 depicts graphs of the effect of Kasugamycin on transgenic TGFβ1-stimulated inflammation and fibrosis
FIG. 11 depicts the effect of kasugamycin on TGFβ1-stimulated fibrosis. In this figure WT=wild type mice; TG=TGFβ1 transgenic mice.
as §1

recombinant Chit1 = recombinant Chit1 (Homo sapiens, UniProt Q13231); experiment: Chit1 inhibitor screen and dose-response validation; format: biochemical; details: for ability to inhibit Chit1 (chitotriosidase) activity: among aminoglycoside antibiotics (FIG. 1)
Description: FIG. 4 depicts dose-response validation of inhibitory activities of kasuagmycin on Chit1 activities
Chit1 is a biomarker and therapeutic target of SSc-ILD, as well as plahing a significant role in bleomycin- and IL-13-induced pulmonary fibrosis. In order to discover new therapeutic approaches for fibrotic diseases, we screened for inhibitors of Chit1, using pentoxifylline as a positive control. The results of the screen were expressed as a % of the inhibitory activity of 200 uM of pentoxifylline. This assay identified 51 compounds that have more than 45% of inhibition (compared to 200 μM pentoxifylline). One of the compounds so identified was kasugamycin.
as §1

[5] = test system: bleomycin-induced pulmonary fibrosis; experiment: bleomycin I.P. model of pulmonary fibrosis, kasugamycin I.P.; format: in vivo, C57 BL/6 mice; details: for pulmonary fibrosis / total lung collagen: bleomycin 25 Unit/kg daily for 6 days, kasugamycin 50 mg/Kg I.P. every other day, 7 doses, Sircol
Description: FIG. 2 depicts a schematic of experiments described herein, using a method reported by Inomata et al (Respiratory Research, 2014, 15:16) that was used for therapeutic efficacy of pirifenidone with minor modification. 8 Week old C57 BL/6 mice were used for the evaluation. Bleomycin (25 Unit/kg) was given daily for 6 days. Seven days after the last bleomycin challenge, Kasugamycin (50 mg/Kg) or PBS were delivered every other day via I.P. injection. The mice received a total of 7 doses of Kasugamycin. The mice were sacrificed a day after the last injection of Kasugamycin.
FIG. 3A depicts the results of a lung collagen assay by Sircol. FIG. 3B depicts results of RT-PCR assay of selected extracellular matrix genes on lung lysate *p<0.05, **p<0.01 by ANOVA evaluation, Bleo, bleomycin; KSM, kasugamycin.
The therapeutic window of kasugamycin was investigated using the method described in Inomata et al (Respiratory Research 2014 15:16) that was used to establish the therapeutic efficacy of pirifendidone, with minor modifications. Briefly, 8 week old C57 BL/6 mice were used for the evaluation. Bleomycin (25 Unit/kg) was given daily for 6 days. Seven days after the last bleomycin challenge, kasugamycin (50 mg/Kg) or PBS were delivered every other day via I.P. injection. The mice received a total of 7 doses of kasugamycin. The mice were sacrificed a day after the last injection of kasugamycin (FIG. 2).

[6] = cited from earlier work

Chain of recombinant Chit1 (Q13231 22-466, species assumed): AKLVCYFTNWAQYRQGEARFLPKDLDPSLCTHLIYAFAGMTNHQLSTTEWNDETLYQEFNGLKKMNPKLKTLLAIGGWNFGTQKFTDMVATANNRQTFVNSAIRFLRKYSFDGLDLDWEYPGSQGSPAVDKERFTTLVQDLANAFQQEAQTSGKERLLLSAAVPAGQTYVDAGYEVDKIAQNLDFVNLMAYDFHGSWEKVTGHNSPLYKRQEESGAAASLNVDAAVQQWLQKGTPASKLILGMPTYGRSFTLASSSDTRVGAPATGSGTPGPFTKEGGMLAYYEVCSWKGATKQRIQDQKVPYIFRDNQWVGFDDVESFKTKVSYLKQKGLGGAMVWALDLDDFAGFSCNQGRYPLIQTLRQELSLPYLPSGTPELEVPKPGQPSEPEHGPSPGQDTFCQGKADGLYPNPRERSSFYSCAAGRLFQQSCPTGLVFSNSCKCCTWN

Q: For `C[C@H]1O[C@H](O[C@H]2[C@H](O)[C@@H](O)[C@@H](O)[C@H](O)[C@@H]2O)[C@@H](N)C[C@@H]1NC(=N)C(=O)O` [kasugamycin, 2-amino-2-[(2R,3S,5S,6R)-5-amino-2-methyl-6-[(2R,3S,5S,6S)-2,3,4,5,6-pentahydroxycyclohexyl]oxyoxan-3-yl]iminoacetic acid], which BAL cell recovery [1] is on record?
A: The BAL cell recovery was “affected BAL cell recovery”.

Q: And the “fibrosis / lung collagen” value [1]?
A: Its value is “reduced lung collagen; also recorded: potent inhibitor of fibrosis”.

Q: What about the “fibrosis (collagen accumulation)” value [2] of the same molecule?
A: The value was “potent inhibitor of fibrosis”.

Q: And the “fibrosis (collagen accumulation)” value ([2]; listed as Kasugamycin)?
A: Its value is “reduced fibrosis”.

Q: And the “fibrosis (collagen count)” value [3]?
A: Its value is “reduced fibrosis”.

Q: And the inflammation ([4]; transgenic TGFβ1 stimulation (FIG. 10))?
A: Its inflammation is “inhibited inflammation”.

Q: What about the fibrosis [4] of the same molecule?
A: The fibrosis was “potent inhibitor of fibrosis”.

Q: What about the fibrosis ([4]; listed as Kasuagmyicn) of the same molecule?
A: The fibrosis was “inhibited”.

Q: What about the “inhibition of Chit1, expressed as % of the inhibitory activity of 200 uM pentoxifylline” value (recombinant Chit1) of the same molecule?
A: The value was “more than 45%”.

Q: And the “ability to inhibit Chit1 (chitotriosidase) activity” value (“ability to inhibit Chit1” for short) (recombinant Chit1)?
A: The value was “can inhibit Chit1”.

Q: And the “ability to inhibit Chit1” value (recombinant Chit1; listed as Kasugamycin)?
A: The value was “unique in its ability to inhibit chitotriosidase activity”.

Q: And the “ability to inhibit Chit1” value (recombinant Chit1; listed as kasugamcyin)?
A: Its value is “unique amongst aminoglycosides in its ability to inhibit Chit 1”.

Q: What about the “matrix gene expression (RT-PCR on lung lysate)” value ([5]; after bleomycin, kasugamycin 50 mg/Kg I.P.) of the same molecule?
A: Its value is “decreased”.

Q: What about the “pulmonary fibrosis / total lung collagen” value [5] of the same molecule?
A: Its value is “reduction of collagen; also recorded: potent inhibitor of fibrosis; also recorded: reduced pulmonary fibrosis”.

Q: And the “pulmonary fibrosis / total lung collagen” value ([5]; listed as Kasugamycin)?
A: The value was “decreased pulmonary fibrosis”.

Q: And the lung histology ([5]; bleomycin I.P. model (FIG. 7))?
A: Its lung histology is “affect on histology”.

Q: And the water solubility [6]?
A: The water solubility was “water soluble”.
